Results reported in patent US5162330A, “Dynemicin C antibiotic, its triacetyl derivative and pharmaceutical composition containing same” (Bristol-Myers Squibb Co., priority 1990, dated 1992).
≈ marks a conversion by molar mass, not a printed value.

Assays:
[1] = test system: C. neoformans IAM4514; assay: In vitro antifungal MIC; type: cell-based, Cryptococcus neoformans
Experimental: (§1) The antifungal MICs of dynemicin C and its triacetate were determined by an agar dilution method on yeast morphology agar adjusted to pH7.0 with 1/15M phosphate buffer. A 5 μl aliquot of fungal suspension containing 10^6 cells/ml was inoculated onto the surface of the antibiotic-containing agar plates with a multiinoculator.

[2] = test system: Pseudomonas aeruginosa species; assay: In vitro antibacterial activity, Pseudomonas aeruginosa as a group; type: cell-based; details: in words
Experimental: (§2) The minimum inhibitory concentration (MIC) was determined by a two-fold serial tube dilution method using nutrient agar (pH7, Difco containing 10^5 cfu/ml).

[3] = test system: HCT-116 (human colon carcinoma) cells; assay: In vitro cytotoxicity; type: cell-based; details: 72 hours, 37° C., neutral red, 540 nm
Experimental: (§3) Dynemicin C and its triacetate derivative were tested for in vitro cytotoxicity against murine and human tumor cell lines. Dynemicin A and its triacetate derivative were used as reference compounds. B16-F10 (murine melanoma) cells were grown to the logarithmic phase in enriched Eagle minimum essential medium (MEM) supplemented with fetal calf serum (FCS, 10%) and kanamycin (60 mcg/ml) and HCT-116 (human colon carcinoma) cells in Maccoy's 5A medium supplemented with FCS (10%), penicillin (100 μ/ml) and streptomycin (100 mcg/ml), and were harvested and inoculated into wells of the 96- or 24-well tissue culture plate with test materials at concentrations of 1.5×10^4, 1.3×10^4, 1.3×10^4, 2.5×10^4 and 3.0×10^4 cells/ml., respectively. They were incubated at 37° C. in a humidified atmosphere of 5% CO2 and 95% air for 72 hours. The cytotoxic activities were determined colorimetrically at 540 nm after staining viable cells with 0.006% neutral red solution.

[4] = test system: B16-F10 (murine melanoma) cells; assay: In vitro cytotoxicity; type: cell-based; details: Mus musculus, 72 hours, 37° C., neutral red, 540 nm
Experimental: as §3

[5] = test system: gram-positive organisms; assay: In vitro antibacterial activity, gram-positive organisms as a group; type: cell-based
Experimental: as §2

[6] = test system: P. cepecia No. 651; assay: In vitro antibacterial MIC; type: cell-based; details: 18 h, pH 7
Experimental: as §2

[7] = test system: S. marcescens IPM-16; assay: In vitro antibacterial MIC; type: cell-based; details: Serratia marcescens, IPM16, 18 h, pH 7
Experimental: as §2

[8] = test system: P. aeruginosa IPM-9; assay: In vitro antibacterial MIC; type: cell-based; details: Pseudomonas aeruginosa, IPM9, 18 h, pH 7
Experimental: as §2

[9] = test system: E. cloacae IPM-12; assay: In vitro antibacterial MIC; type: cell-based; details: Enterobacter cloacae, IPM12, 18 h, pH 7
Experimental: as §2

[10] = test system: S. marcescens IPM-15; assay: In vitro antibacterial MIC; type: cell-based; details: Serratia marcescens, IPM15, 18 h, pH 7
Experimental: as §2

[11] = test system: S. epidermidis 11-1230; assay: In vitro antibacterial MIC; type: cell-based; details: Staphylococcus epidermidis, 111230, 18 h, pH 7
Experimental: as §2

[12] = test system: E. faecium A24817; assay: In vitro antibacterial MIC; type: cell-based; details: Enterococcus faecium, pH 7, nutrient agar pH7, 32° C., 18 hours
Experimental: as §2

[13] = test system: P. rettgeri IPM-14; assay: In vitro antibacterial MIC; type: cell-based; details: Providencia rettgeri, IPM14, 18 h, pH 7
Experimental: as §2

[14] = test system: S. aureus A15036 (MRSA); assay: In vitro antibacterial MIC; type: cell-based; details: Staphylococcus aureus, 18 h, pH 7
Experimental: as §2

[15] = test system: X. maltophilia GN12873; assay: In vitro antibacterial MIC; type: cell-based; details: Stenotrophomonas maltophilia, pH 7, nutrient agar pH7, 32° C., 18 hours
Experimental: as §2

[16] = test system: S. aureus smith; assay: In vitro antibacterial MIC; type: cell-based; details: Staphylococcus aureus, 18 h, pH 7
Experimental: as §2

[17] = test system: E. coli Juhl A15119; assay: In vitro antibacterial MIC; type: cell-based; details: Escherichia coli, JUHLA15119, 18 h, pH 7
Experimental: as §2

[18] = test system: E. faecalis A9808; assay: In vitro antibacterial MIC; type: cell-based; details: Enterococcus faecalis, A9808, 18 h, pH 7
Experimental: as §2

[19] = test system: X. maltophilia No. 661; assay: In vitro antibacterial MIC; type: cell-based; details: Stenotrophomonas maltophilia, pH 7, nutrient agar pH7, 32° C., 18 hours
Experimental: as §2

[20] = test system: S. aureus IPM-24 (MRSA); assay: In vitro antibacterial MIC; type: cell-based; details: Staphylococcus aureus, 18 h, pH 7
Experimental: as §2

[21] = test system: P. aeruginosa A9843A; assay: In vitro antibacterial MIC; type: cell-based; details: Pseudomonas aeruginosa, 18 h, pH 7
Experimental: as §2

[22] = test system: P. mirabilis IFO 3849; assay: In vitro antibacterial MIC; type: cell-based; details: Proteus mirabilis, IFO3849, 18 h, pH 7
Experimental: as §2

[23] = test system: P. vulgaris IPM-13; assay: In vitro antibacterial MIC; type: cell-based; details: Proteus vulgaris, IPM13, 18 h, pH 7
Experimental: as §2

[24] = test system: K. pneumoniae PCI 602; assay: In vitro antibacterial MIC; type: cell-based; details: Klebsiella pneumoniae, PCI602, 18 h, pH 7
Experimental: as §2

[25] = test system: P. aeruginosa A20599; assay: In vitro antibacterial MIC; type: cell-based; details: Pseudomonas aeruginosa, A20599, 18 h, pH 7
Experimental: as §2

[26] = test system: P. cepecia A21213; assay: In vitro antibacterial MIC; type: cell-based; details: 18 h, pH 7
Experimental: as §2

[27] = test system: P. aeruginosa KKA19; assay: In vitro antibacterial MIC; type: cell-based; details: Pseudomonas aeruginosa, pH 7, nutrient agar pH7, 32° C., 18 hours
Experimental: as §2

[28] = test system: M. luteus PCI 1001; assay: In vitro antibacterial MIC; type: cell-based; details: Micrococcus luteus, PCI1001, pH 7, nutrient agar pH7, 32° C., 18 hours
Experimental: as §2

[29] = test system: M. morganii I510; assay: In vitro antibacterial MIC; type: cell-based; details: Morganella morganii, I510, 18 h, pH 7
Experimental: as §2

[30] = test system: P. aeruginosa IPM-8; assay: In vitro antibacterial MIC; type: cell-based; details: Pseudomonas aeruginosa, IPM8, 18 h, pH 7
Experimental: as §2

[31] = test system: E. coli 255; assay: In vitro antibacterial MIC; type: cell-based; details: Escherichia coli, 255, 18 h, pH 7
Experimental: as §2

[32] = test system: gram-negative organisms; assay: In vitro antibacterial activity, gram-negative organisms as a group; type: cell-based; details: other gram-negatives than P. aeruginosa, except Enterobacter cloacae IPM-12 and Serratia marcescens IPM-16
Experimental: as §2

[33] = test system: murine and human tumor cell lines; assay: In vitro cytotoxicity, tumor cell lines as a group; type: cell-based; details: in words
Experimental: as §3

[34] = Solubility; type: physicochemical
[35] = test system: Cryptococcus neoformans D49; assay: In vitro antifungal MIC; type: cell-based
Experimental: as §1

[36] = test system: Candida albicans ATCC 38247; assay: In vitro antifungal MIC; type: cell-based
Experimental: as §1

COC1=C(C=O)C(C)C23OC24c2cc(O)c5c(c2NC3C#CC=CC#CC14)C(=O)c1c(O)ccc(O)c1C5=O (centres unmarked) [Dynemicin C]
activity (compared with amphotericin B and ketoconazole) ([1]; C. neoformans IAM4514, in words): much more active than amphotericin B and ketoconazole
MIC ([1]; Cryptococcus neoformans, IAM4514, 40 h, pH 7): 0.013 µg/mL (≈ 0.0249 µM)
activity against Pseudomonas aeruginosa species [2]: did not show any activity
IC50 [3]: 0.0086 µg/mL (≈ 0.0165 µM)
IC50 [4]: 0.0028 µg/mL (≈ 0.00537 µM)
activity against gram-positive organisms compared with amikacin ([5]; comparison in words): much better activities against these organisms than amikacin
activity against gram-positive organisms ([5]; in words): strong activity
MIC [6]: 0.1 µg/mL (≈ 0.192 µM)
MIC [7]: 100 µg/mL (≈ 192 µM)
MIC [8]: 100 µg/mL (≈ 192 µM)
MIC [9]: 100 µg/mL (≈ 192 µM)
MIC [10]: 25 µg/mL (≈ 47.9 µM)
MIC [11]: < 0.0002 µg/mL
MIC [12]: 0.0008 µg/mL (≈ 0.00153 µM)
MIC [13]: 0.1 µg/mL (≈ 0.192 µM)
MIC [14]: < 0.0002 µg/mL
MIC [15]: 100 µg/mL (≈ 192 µM)
MIC [16]: < 0.0002 µg/mL
MIC [17]: 100 µg/mL (≈ 192 µM)
MIC [18]: 0.0008 µg/mL (≈ 0.00153 µM)
MIC [19]: 1.6 µg/mL (≈ 3.07 µM)
MIC [20]: < 0.0002 µg/mL
MIC [21]: 100 µg/mL (≈ 192 µM)
MIC [22]: 0.8 µg/mL (≈ 1.53 µM)
MIC [23]: 0.05 µg/mL (≈ 0.0959 µM)
MIC [24]: 0.8 µg/mL (≈ 1.53 µM)
MIC [25]: 100 µg/mL (≈ 192 µM)
MIC [26]: 0.1 µg/mL (≈ 0.192 µM)
MIC [27]: 100 µg/mL (≈ 192 µM)
MIC [28]: 0.0008 µg/mL (≈ 0.00153 µM)
MIC [29]: 0.1 µg/mL (≈ 0.192 µM)
MIC [30]: 100 µg/mL (≈ 192 µM)
MIC [31]: 100 µg/mL (≈ 192 µM)
activity against gram-negatives compared with amikacin [32]: activity better than amikacin
cytotoxic activity compared with dynemicin A [33]: almost the same activity as dynemicin A
solubility in 1,4-dioxane ([34]; 1,4-dioxane): soluble
solubility in acetonitrile ([34]; acetonitrile): soluble
solubility in dimethylformamide ([34]; dimethylformamide): soluble
solubility in dimethylsulfoxide ([34]; dimethylsulfoxide): soluble
solubility in ethyl acetate ([34]; ethyl acetate): slightly soluble
solubility in methanol ([34]; methanol): slightly soluble
solubility in n-hexane ([34]; n-hexane): practically insoluble
solubility in water ([34]; water): practically insoluble
activity (compared with amphotericin B and ketoconazole) ([35]; Cryptococcus neoformans D49, in words): much more active than amphotericin B and ketoconazole
MIC ([35]; Cryptococcus neoformans, D49, 40 h, pH 7): 0.0063 µg/mL (≈ 0.0121 µM)
activity compared with ketoconazole ([36]; Candida albicans ATCC 38247, amphotericin resistant, in words): stronger than that of ketoconazole
MIC ([36]; Candida albicans, ATCC38247, 40 h, pH 7): 0.8 µg/mL (≈ 1.53 µM)
